In brackets after ≈: the same amount, converted by molar mass.
Key:
Human alphaherpesvirus 2 = test: Compound was evaluated for the antiviral activity against Herpes simplex virus type 2 (HSV-2) MS strain by using plaque reduction assay.; format: functional; conditions: read-out: ED50 (the source's name)
Human alphaherpesvirus 1 = test: Compound was evaluated for the antiviral activity against Herpes simplex virus type 1 (HSV-1) VR-3 strain by using plaque reduction assay.; format: functional; conditions: read-out: ED50 (the source's name)
Human alphaherpesvirus 3 = test: Compound was evaluated for the antiviral activity against Varicella-Zoster virus (VZV) Oka strain by using plaque reduction assay.; format: functional; conditions: read-out: ED50 (the source's name)
CCRF-HSB-2 = test: Compound was evaluated for the cytotoxicity against human T-cell leukemia, CCRF-HSB-2 by using MTT assay.; format: functional, cell-based

| Structure (SMILES) | EC50 (Human alphaherpesvirus 2) [µg/mL] | EC50 (Human alphaherpesvirus 1) [µg/mL] | EC50 (Human alphaherpesvirus 3) [µg/mL] | IC50 (CCRF-HSB-2) [µg/mL] |
| --- | --- | --- | --- | --- |
| C[C@@]1(CO)O[C@H](n2ccc(N)nc2=O)C[C@H]1O | 0.27 (≈ 1.12 µM) | 0.071 (≈ 0.294 µM) | 0.094 (≈ 0.39 µM) | 0.12 (≈ 0.497 µM) |
| O=c1[nH]c(=O)n([C@@H]2O[C@H](CO)[C@@H](O)[C@H]2O)cc1/C=C/Br | 62 (≈ 178 µM) | 0.048 (≈ 0.137 µM) | 0.00083 (≈ 0.00238 µM) | > 100 |
| C[C@]1(CO)OC(n2cc(/C=C/Br)c(=O)[nH]c2=O)[C@H](O)[C@@H]1O (stereo not given in full) | 63.5 (≈ 175 µM) | 24.4 (≈ 67.2 µM) | 0.18 (≈ 0.496 µM) | > 100 |
| C[C@]1(CO)O[C@@H](n2cc(/C=C/Br)c(=O)[nH]c2=O)CC1O (single isomer, unassigned) | 0.26 (≈ 0.749 µM) | 0.0053 (≈ 0.0153 µM) | 0.00077 (≈ 0.00222 µM) | 0.45 (≈ 1.3 µM) |
| O=c1[nH]c(=O)n([C@H]2C[C@H](O)[C@@H](CO)O2)cc1/C=C/Br [BRIVUDINE] | > 100 | 0.052 (≈ 0.156 µM) | 0.013 (≈ 0.039 µM) | > 100 |
